# Experimental data as given in patent US8952024B2, “Herbicidal pyrimidone derivatives” (E I du Pont de Nemours and Company, priority 2009, dated 2015).
# Legend:
# Experiment in all cases: Test B pre-/postemergence plant response
# Type in all cases: in vivo
# [1] = test system: downy bromegrass (Bromus tectorum)
# Method in brief: (§1)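 Visually scored on a 0 to 100 scale after 13 to 15 days in greenhouse versus controls. Treatments were preemergence on seeded loam/sand soil and postemergence on 1- to 4-leaf plants.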
# [2] = test system: pigweed (Amaranthus retroflexus)
# Method in brief: as §1
# [3] = test system: lambsquarters (Chenopodium album)
# Method in brief: as §1
# [4] = test system: green foxtail (Setaria viridis)
# Method in brief: as §1
# [5] = test system: woolly cupgrass (Eriochloa villosa)
# Method in brief: as §1
# [6] = test system: blackgrass (Alopecurus myosuroides)
# Method in brief: as §1
# wild oat (Avena fatua) = test system: wild oat (Avena fatua)
# Method in brief: as §1
# soybean (Glycine max) = test system: soybean (Glycine max)
# Method in brief: as §1
# kochia (Kochia scoparia) = test system: kochia (Kochia scoparia)
# Method in brief: as §1
# [7] = test system: johnsongrass (Sorghum halepense)
# Method in brief: as §1
# [8] = test system: morningglory (Ipomoea coccinea)
# Method in brief: as §1
# [9] = test system: yellow nutsedge (Cyperus esculentus)
# Method in brief: as §1
# [10] = test system: large crabgrass (Digitaria sanguinalis)
# Method in brief: as §1
# [11] = test system: goosegrass (Eleusine indica)
# Method in brief: as §1
# corn (Zea mays) = test system: corn (Zea mays)
# Method in brief: as §1
# [12] = test system: Surinam grass (Brachiaria decumbens)
# Method in brief: as §1
# [13] = test system: velvetleaf (Abutilon theophrasti)
# Method in brief: as §1
# [14] = 250 g ai/ha, Preemergence, 0 to 100 scale
# [15] = Postemergence, 31 g ai/ha, scale 0 to 100 (0 no effect, 100 complete control)
# [16] = Postemergence, 62 g ai/ha, scale 0 (no effect) to 100 (complete control), 13 to 15 days
# [17] = Postemergence, 125 g ai/ha, visual rating after 13 to 15 days, scale 0 (no effect) to 100 (complete control)
# [18] = Postemergence, 250 g ai/ha, scale 0 to 100
# [19] = Preemergence, 31 g ai/ha, scale 0 to 100 (0 no effect, 100 complete control)
# [20] = Preemergence, 62 g ai/ha, scale 0 to 100, 0 no effect, 100 complete control
# [21] = Preemergence, 125 g ai/ha, 0 to 100 scale
substance,measurement,setting,value
"2-(3,5-difluorophenyl)-5-[(2-hydroxy-4-oxobicyclo[3.2.1]oct-2-en-3-yl)carbonyl]-3-(2-methoxyethyl)-4(3H)-pyrimidinone [Compound 243]","Plant response rating, Bromegrass, Downy",[1]; [14],10
same,"Plant response rating, Bromegrass, Downy",[1]; [15],5
same,"Plant response rating, Bromegrass, Downy",[1]; [16],30
same,"Plant response rating, Bromegrass, Downy",[1]; [17],40
same,"Bromegrass, Downy plant response rating",[1]; [18],50
same,"Plant response rating, Bromegrass, Downy",[1]; [19],0
same,"Plant response rating, Bromegrass, Downy",[1]; [20],0
same,"Bromegrass, Downy plant response rating",[1]; [21],5
same,"Plant response rating, Pigweed",[2]; [14],100
same,"Plant response rating, Pigweed",[2]; [15],80
same,"Plant response rating, Pigweed",[2]; [16],85
same,"Plant response rating, Pigweed",[2]; [17],100
same,Pigweed plant response rating,[2]; [18],100
same,"Plant response rating, Pigweed",[2]; [19],50
same,"Plant response rating, Pigweed",[2]; [20],100
same,Pigweed plant response rating,[2]; [21],100
same,"Plant response rating, Lambsquarters",[3]; [14],100
same,"Plant response rating, Lambsquarters",[3]; [15],75
same,"Plant response rating, Lambsquarters",[3]; [16],80
same,"Plant response rating, Lambsquarters",[3]; [17],80
same,Lambsquarters plant response rating,[3]; [18],95
same,"Plant response rating, Lambsquarters",[3]; [19],100
same,"Plant response rating, Lambsquarters",[3]; [20],100
same,Lambsquarters plant response rating,[3]; [21],100
same,"Plant response rating, Foxtail, Green",[4]; [15],35
same,"Plant response rating, Foxtail, Green",[4]; [16],40
same,"Plant response rating, Foxtail, Green",[4]; [17],80
same,"Foxtail, Green plant response rating",[4]; [18],95
same,"Plant response rating, Foxtail, Green",[4]; [19],0
same,"Plant response rating, Foxtail, Green",[4]; [20],0
same,"Foxtail, Green plant response rating",[4]; [21],5
same,"Plant response rating, Cupgrass, Woolly",[5]; [14],60
same,"Plant response rating, Cupgrass, Woolly",[5]; [15],70
same,"Plant response rating, Cupgrass, Woolly",[5]; [16],75
same,"Plant response rating, Cupgrass, Woolly",[5]; [17],80
same,"Cupgrass, Woolly plant response rating",[5]; [18],85
same,"Plant response rating, Cupgrass, Woolly",[5]; [19],0
same,"Plant response rating, Cupgrass, Woolly",[5]; [20],15
same,"Cupgrass, Woolly plant response rating",[5]; [21],45
same,"Plant response rating, Blackgrass",[6]; [14],40
same,"Plant response rating, Blackgrass",[6]; [15],0
same,"Plant response rating, Blackgrass",[6]; [16],0
same,"Plant response rating, Blackgrass",[6]; [17],40
same,Blackgrass plant response rating,[6]; [18],70
same,"Plant response rating, Blackgrass",[6]; [19],0
same,"Plant response rating, Blackgrass",[6]; [20],0
same,Blackgrass plant response rating,[6]; [21],20
same,"Plant response rating, Oat, Wild",wild oat (Avena fatua); [14],60
same,"Plant response rating, Oat, Wild",wild oat (Avena fatua); [15],0
same,"Plant response rating, Oat, Wild",wild oat (Avena fatua); [16],5
same,"Plant response rating, Oat, Wild",wild oat (Avena fatua); [17],40
same,"Oat, Wild plant response rating",wild oat (Avena fatua); [18],55
same,"Plant response rating, Oat, Wild",wild oat (Avena fatua); [19],0
same,"Plant response rating, Oat, Wild",wild oat (Avena fatua); [20],0
same,"Oat, Wild plant response rating",wild oat (Avena fatua); [21],0
same,"Plant response rating, Soybean",soybean (Glycine max); [14],80
same,"Plant response rating, Soybean",soybean (Glycine max); [15],70
same,"Plant response rating, Soybean",soybean (Glycine max); [16],75
same,"Plant response rating, Soybean",soybean (Glycine max); [17],85
same,Soybean plant response rating,soybean (Glycine max); [18],98
same,"Plant response rating, Soybean",soybean (Glycine max); [19],0
same,"Plant response rating, Soybean",soybean (Glycine max); [20],10
same,"Plant response rating, Kochia",kochia (Kochia scoparia); [14],100
same,"Plant response rating, Kochia",kochia (Kochia scoparia); [15],10
same,"Plant response rating, Kochia",kochia (Kochia scoparia); [16],15
same,"Plant response rating, Kochia",kochia (Kochia scoparia); [17],25
same,Kochia plant response rating,kochia (Kochia scoparia); [18],85
same,"Plant response rating, Kochia",kochia (Kochia scoparia); [19],15
same,"Plant response rating, Kochia",kochia (Kochia scoparia); [20],100
same,Kochia plant response rating,kochia (Kochia scoparia); [21],100
same,"Plant response rating, Johnsongrass",[7]; [14],98
same,"Plant response rating, Johnsongrass",[7]; [15],60
same,"Plant response rating, Johnsongrass",[7]; [16],70
same,"Plant response rating, Johnsongrass",[7]; [17],85
same,Johnsongrass plant response rating,[7]; [18],95
same,"Plant response rating, Johnsongrass",[7]; [19],0
same,"Plant response rating, Johnsongrass",[7]; [20],85
same,Johnsongrass plant response rating,[7]; [21],90
same,"Plant response rating, Morningglory",[8]; [14],98
same,"Plant response rating, Morningglory",[8]; [15],45
same,"Plant response rating, Morningglory",[8]; [16],45
same,"Plant response rating, Morningglory",[8]; [17],70
same,Morningglory plant response rating,[8]; [18],75
same,"Plant response rating, Morningglory",[8]; [19],0
same,"Plant response rating, Morningglory",[8]; [20],40
same,Morningglory plant response rating,[8]; [21],70
same,"Plant response rating, Nutsedge, Yellow",[9]; [14],95
same,"Plant response rating, Nutsedge, Yellow",[9]; [15],20
same,"Plant response rating, Nutsedge, Yellow",[9]; [16],25
same,"Plant response rating, Nutsedge, Yellow",[9]; [17],60
same,"Nutsedge, Yellow plant response rating",[9]; [18],70
same,"Plant response rating, Nutsedge, Yellow",[9]; [19],0
same,"Plant response rating, Nutsedge, Yellow",[9]; [20],45
same,"Nutsedge, Yellow plant response rating",[9]; [21],80
same,"Plant response rating, Crabgrass, Large",[10]; [14],100
same,"Plant response rating, Crabgrass, Large",[10]; [15],70
same,"Plant response rating, Crabgrass, Large",[10]; [16],80
same,"Plant response rating, Crabgrass, Large",[10]; [17],85
same,"Crabgrass, Large plant response rating",[10]; [18],95
same,"Plant response rating, Crabgrass, Large",[10]; [19],0
same,"Plant response rating, Crabgrass, Large",[10]; [20],90
same,"Crabgrass, Large plant response rating",[10]; [21],100
same,"Plant response rating, Goosegrass",[11]; [14],100
same,"Plant response rating, Goosegrass",[11]; [15],60
same,"Plant response rating, Goosegrass",[11]; [16],85
same,"Plant response rating, Goosegrass",[11]; [17],90
same,Goosegrass plant response rating,[11]; [18],100
same,"Plant response rating, Goosegrass",[11]; [19],75
same,Goosegrass plant response rating,[11]; [21],100
same,"Plant response rating, Corn",corn (Zea mays); [14],10
same,"Plant response rating, Corn",corn (Zea mays); [15],15
same,"Plant response rating, Corn",corn (Zea mays); [16],45
same,"Plant response rating, Corn",corn (Zea mays); [17],75
same,Corn plant response rating,corn (Zea mays); [18],80
same,"Plant response rating, Corn",corn (Zea mays); [19],0
same,"Plant response rating, Corn",corn (Zea mays); [20],0
same,Corn plant response rating,corn (Zea mays); [21],0
same,"Plant response rating, Surinam Grass",[12]; [14],95
same,"Plant response rating, Surinam Grass",[12]; [15],55
same,"Plant response rating, Surinam Grass",[12]; [16],65
same,"Plant response rating, Surinam Grass",[12]; [17],75
same,Surinam Grass plant response rating,[12]; [18],85
same,"Plant response rating, Surinam Grass",[12]; [19],0
same,"Plant response rating, Surinam Grass",[12]; [20],45
same,Surinam Grass plant response rating,[12]; [21],95
same,"Plant response rating, Velvetleaf",[13]; [14],100
same,"Plant response rating, Velvetleaf",[13]; [15],85
same,"Plant response rating, Velvetleaf",[13]; [16],85
same,"Plant response rating, Velvetleaf",[13]; [17],90
same,Velvetleaf plant response rating,[13]; [18],98
same,"Plant response rating, Velvetleaf",[13]; [19],98
same,"Plant response rating, Velvetleaf",[13]; [20],100
same,Velvetleaf plant response rating,[13]; [21],100
